According to ChEMBL document CHEMBL4837181 (Eur J Med Chem, 2020):
Where a SMILES comes first, the peptide text is derived from it. [ ]: non-standard residue; d: D form. dTrp(1-Me) = Cn1cc(C[C@@H](N)C(=O)O)c2ccccc21

Assays:
[1] = Dose normalized Cmax in rat at 10 mg/kg, po measured upto 72 hrs by LC-MS/MS analysis; type: ADME, organism-based; conditions: in vivo
[2] = Stability in rat plasma assessed as parent compound remaining measured after 2 hrs by LC-MS/MS analysis; type: ADME, cell-free; conditions: read-out: Stabilty
[3] = Change in AUC (infinity) in rat at 37 umol/kg, po measured upto 72 hrs by LC-MS/MS analysis; type: ADME, organism-based; conditions: in vivo, at 37 µmol/kg
[4] = Chemical stability of compound in simulated gastric fluid assessed as compound remaining at 5 uM measured after 24 hrs by LC-MS/MS analysis; type: ADME, physicochemical; conditions: read-out: Stabilty
[5] = Change in normalised AUCinfinity in rat at 10 mg/kg, po measured upto 72 hrs by LC-MS/MS analysis; type: ADME, organism-based; conditions: in vivo
[6] = Chemical stability of compound in simulated intestinal fluid assessed as compound remaining at 5 uM measured after 24 hrs by LC-MS/MS analysis; type: ADME, physicochemical; conditions: read-out: Stabilty
[7] = Stability in human plasma assessed as parent compound remaining measured after 24 hrs by LC-MS/MS analysis; type: ADME, cell-free; conditions: read-out: Stabilty
[8] = Chemical stability of compound in PBS buffer assessed as compound remaining at pH 7.4 at 5 uM measured after 6 hrs by LC-MS/MS analysis; type: physicochemical; conditions: read-out: Stabilty
[9] = Chemical stability of compound in saline assessed as compound remaining at 5 uM measured after 24 hrs by LC-MS/MS analysis; type: physicochemical; conditions: read-out: Stabilty
[10] = Chemical stability of compound in PBS buffer assessed as compound remaining at pH 7.4 at 5 uM measured after 24 hrs by LC-MS/MS analysis; type: physicochemical; conditions: read-out: Stabilty
[11] = Stability in human plasma assessed as parent compound remaining measured after 6 hrs by LC-MS/MS analysis; type: ADME, cell-free; conditions: read-out: Stabilty
[12] = Chemical stability of compound in simulated gastric fluid assessed as compound remaining at 5 uM measured after 1.5 hrs by LC-MS/MS analysis; type: ADME, physicochemical; conditions: read-out: Stabilty
[13] = Chemical stability of compound in simulated intestinal fluid assessed as compound remaining at 5 uM measured after 3 hrs by LC-MS/MS analysis; type: ADME, physicochemical; conditions: read-out: Stabilty
[14] = Change in normalised Cmax in rat at 10 mg/kg, po measured upto 72 hrs by LC-MS/MS analysis; type: ADME, organism-based; conditions: in vivo
[15] = Dose normalized AUC (0 to infinity) in rat at 10 mg/kg, po measured upto 72 hrs by LC-MS/MS analysis; type: ADME, organism-based; conditions: in vivo
[16] = Chemical stability of compound in 0.1 N aqueous HCl buffer assessed as compound remaining at pH 1 at 5 uM measured after 24 hrs by LC-MS/MS analysis; type: physicochemical; conditions: pH 1, 24 h
[17] = Stability in mouse plasma assessed as parent compound remaining measured after 2 hrs by LC-MS/MS analysis; type: ADME, cell-free; conditions: read-out: Stabilty
[18] = Chemical stability of compound in 0.1 N aqueous HCl buffer assessed as compound remaining at pH 1 at 5 uM measured after 1.5 hrs by LC-MS/MS analysis; type: physicochemical; conditions: pH 1, 1.5 h
[19] = Change in Cmax in rat at 37 umol/kg, po measured upto 72 hrs by LC-MS/MS analysis; type: ADME, organism-based; conditions: in vivo, at 37 µmol/kg

Structure (SMILES): Cl.Cn1cc(C[C@@H](N)C(=O)OCC2CCNCC2)c2ccccc21
- Cmax/dose [1]: 21.5 µM
- remaining at 2 h [2]: 19%
- Activity [3]: -54%
- remaining at 24 h, 5 µM [4]: 73%
- Activity [5]: 75%
- remaining at 24 h, 5 µM [6]: 3%
- remaining at 24 h [7]: 2%
- remaining at 6 h, 5 µM [8]: 92%
- remaining at 24 h, 5 µM [9]: 23%
- remaining at 24 h, 5 µM [10]: 12%
- remaining at 6 h [11]: 44%
- remaining at 1.5 h, 5 µM [12]: 75%
- remaining at 3 h, 5 µM [13]: 45%
- Activity [14]: 24%
- AUC/dose [15]: 889 µM·h
- Stabilty [16]: 23%
- remaining at 2 h [17]: 0%
- Stabilty [18]: 36%
- Activity [19]: -69%

Structure (SMILES): Cl.Cn1cc(C[C@@H](NC(=O)[C@@H](N)Cc2ccccc2)C(=O)O)c2ccccc21
- Cmax/dose [1]: 11.9 µM
- remaining at 2 h [2]: 19%
- remaining at 24 h, 5 µM [4]: 80%
- Activity [5]: -16%
- remaining at 24 h, 5 µM [6]: 0%
- remaining at 24 h [7]: 75%
- remaining at 6 h, 5 µM [8]: 89%
- remaining at 24 h, 5 µM [9]: 92%
- remaining at 24 h, 5 µM [10]: 92%
- remaining at 6 h [11]: 87%
- remaining at 1.5 h, 5 µM [12]: 79%
- remaining at 3 h, 5 µM [13]: 91%
- Activity [14]: -31%
- AUC/dose [15]: 425 µM·h
- Stabilty [16]: 92%
- remaining at 2 h [17]: 66%
- Stabilty [18]: 96%

Structure (SMILES): Cl.Cn1cc(C[C@@H](NC(=O)CN)C(=O)O)c2ccccc21 (H-Gly-[dTrp(1-Me)]-OH)
- Cmax/dose [1]: 28 µM
- remaining at 2 h [2]: 56%
- Activity [3]: 1%
- remaining at 24 h, 5 µM [4]: 78%
- Activity [5]: 18%
- remaining at 24 h, 5 µM [6]: 38%
- remaining at 24 h [7]: 68%
- remaining at 6 h, 5 µM [8]: 83%
- remaining at 24 h, 5 µM [9]: 99%
- remaining at 24 h, 5 µM [10]: 65%
- remaining at 6 h [11]: 78%
- remaining at 1.5 h, 5 µM [12]: 80%
- remaining at 3 h, 5 µM [13]: 64%
- Activity [14]: 62%
- AUC/dose [15]: 599 µM·h
- Stabilty [16]: 99%
- remaining at 2 h [17]: 100%
- Stabilty [18]: 64%
- Activity [19]: 10%

Structure (SMILES): CCOC(=O)[C@@H](Cc1cn(C)c2ccccc12)NC(=O)[C@@H](N)[C@@H](C)CC.Cl
- Cmax/dose [1]: 12.8 µM
- remaining at 2 h [2]: 0%
- remaining at 24 h, 5 µM [4]: 97%
- Activity [5]: 19%
- remaining at 24 h, 5 µM [6]: 38%
- remaining at 24 h [7]: 16%
- remaining at 6 h, 5 µM [8]: 97%
- remaining at 24 h, 5 µM [9]: 97%
- remaining at 24 h, 5 µM [10]: 63%
- remaining at 6 h [11]: 75%
- remaining at 1.5 h, 5 µM [12]: 98%
- remaining at 3 h, 5 µM [13]: 91%
- Activity [14]: -26%
- AUC/dose [15]: 606 µM·h
- Stabilty [16]: 97%
- remaining at 2 h [17]: 0%
- Stabilty [18]: 95%

Structure (SMILES): Cl.Cn1cc(C[C@@H](N)C(=O)OCCC2CCOCC2)c2ccccc21
- Cmax/dose [1]: 15 µM
- remaining at 2 h [2]: 0%
- remaining at 24 h, 5 µM [4]: 60%
- Activity [5]: 52%
- remaining at 24 h, 5 µM [6]: 0%
- remaining at 24 h [7]: 54%
- remaining at 6 h, 5 µM [8]: 85%
- remaining at 24 h, 5 µM [9]: 76%
- remaining at 24 h, 5 µM [10]: 0%
- remaining at 6 h [11]: 85%
- remaining at 1.5 h, 5 µM [12]: 85%
- remaining at 3 h, 5 µM [13]: 67%
- Activity [14]: -14%
- AUC/dose [15]: 774 µM·h
- Stabilty [16]: 76%
- remaining at 2 h [17]: 0%
- Stabilty [18]: 52%

Structure (SMILES): CCOC(=O)[C@@H](Cc1cn(C)c2ccccc12)NC(=O)[C@@H](N)CCC(N)=O.Cl
- Cmax/dose [1]: 24.4 µM
- remaining at 2 h [2]: 0%
- Activity [3]: -1%
- remaining at 24 h, 5 µM [4]: 88%
- Activity [5]: 58%
- remaining at 24 h, 5 µM [6]: 1%
- remaining at 24 h [7]: 0%
- remaining at 6 h, 5 µM [8]: 67%
- remaining at 24 h, 5 µM [9]: 85%
- remaining at 24 h, 5 µM [10]: 17%
- remaining at 6 h [11]: 23%
- remaining at 1.5 h, 5 µM [12]: 108%
- remaining at 3 h, 5 µM [13]: 70%
- Activity [14]: 41%
- AUC/dose [15]: 806 µM·h
- Stabilty [16]: 85%
- remaining at 2 h [17]: 0%
- Stabilty [18]: 73%
- Activity [19]: 12%

Structure (SMILES): Cl.Cn1cc(C[C@@H](N)C(=O)N[C@H](Cc2cn(C)c3ccccc23)C(=O)O)c2ccccc21
- Cmax/dose [1]: 3 µM
- remaining at 2 h [2]: 80%
- remaining at 24 h, 5 µM [4]: 49%
- Activity [5]: -48%
- remaining at 24 h, 5 µM [6]: 77%
- remaining at 24 h [7]: 82%
- remaining at 6 h, 5 µM [8]: 100%
- remaining at 24 h, 5 µM [9]: 91%
- remaining at 24 h, 5 µM [10]: 34%
- remaining at 6 h [11]: 92%
- remaining at 1.5 h, 5 µM [12]: 63%
- remaining at 3 h, 5 µM [13]: 81%
- Activity [14]: -83%
- AUC/dose [15]: 262 µM·h
- Stabilty [16]: 91%
- remaining at 2 h [17]: 65%
- Stabilty [18]: 45%

Structure (SMILES): Cl.Cn1cc(C[C@@H](N)C(=O)OCC(O)CO)c2ccccc21 (stereo not given in full)
- Cmax/dose [1]: 33.3 µM
- remaining at 2 h [2]: 0%
- Activity [3]: 21%
- remaining at 24 h, 5 µM [4]: 58%
- Activity [5]: 17%
- remaining at 24 h, 5 µM [6]: 10%
- remaining at 24 h [7]: 11%
- remaining at 6 h, 5 µM [8]: 50%
- remaining at 24 h, 5 µM [9]: 99%
- remaining at 24 h, 5 µM [10]: 29%
- remaining at 6 h [11]: 33%
- remaining at 1.5 h, 5 µM [12]: 62%
- remaining at 3 h, 5 µM [13]: 34%
- Activity [14]: 92%
- AUC/dose [15]: 595 µM·h
- Stabilty [16]: 99%
- remaining at 2 h [17]: 0%
- Stabilty [18]: 37%
- Activity [19]: 28%

Structure (SMILES): Cl.Cn1cc(C[C@@H](NC(=O)[C@H](N)Cc2c[nH]c3ccccc23)C(=O)O)c2ccccc21
- Cmax/dose [1]: 3.2 µM
- remaining at 2 h [2]: 79%
- remaining at 24 h, 5 µM [4]: 48%
- Activity [5]: -64%
- remaining at 24 h, 5 µM [6]: 51%
- remaining at 24 h [7]: 32%
- remaining at 6 h, 5 µM [8]: 81%
- remaining at 24 h, 5 µM [9]: 87%
- remaining at 24 h, 5 µM [10]: 45%
- remaining at 6 h [11]: 77%
- remaining at 1.5 h, 5 µM [12]: 51%
- remaining at 3 h, 5 µM [13]: 53%
- Activity [14]: -82%
- AUC/dose [15]: 182 µM·h
- Stabilty [16]: 87%
- remaining at 2 h [17]: 82%
- Stabilty [18]: 53%

Structure (SMILES): CN(C)CCOC(=O)[C@H](N)Cc1cn(C)c2ccccc12.Cl
- Cmax/dose [1]: 39.5 µM
- remaining at 2 h [2]: 0%
- remaining at 24 h, 5 µM [4]: 2%
- Activity [5]: 44%
- remaining at 24 h, 5 µM [6]: 0%
- remaining at 24 h [7]: 2%
- remaining at 6 h, 5 µM [8]: 0%
- remaining at 24 h, 5 µM [9]: 47%
- remaining at 24 h, 5 µM [10]: 0%
- remaining at 6 h [11]: 10%
- remaining at 1.5 h, 5 µM [12]: 2%
- remaining at 3 h, 5 µM [13]: 0%
- Activity [14]: 128%
- AUC/dose [15]: 731 µM·h
- Stabilty [16]: 47%
- remaining at 2 h [17]: 0%
- Stabilty [18]: 3%

Structure (SMILES): CC[C@H](C)[C@H](N)C(=O)N[C@H](Cc1cn(C)c2ccccc12)C(=O)O.Cl
- Cmax/dose [1]: 12.5 µM
- remaining at 2 h [2]: 54%
- remaining at 24 h, 5 µM [4]: 77%
- Activity [5]: -38%
- remaining at 24 h, 5 µM [6]: 0%
- remaining at 24 h [7]: 86%
- remaining at 6 h, 5 µM [8]: 100%
- remaining at 24 h, 5 µM [9]: 98%
- remaining at 24 h, 5 µM [10]: 100%
- remaining at 6 h [11]: 84%
- remaining at 1.5 h, 5 µM [12]: 81%
- remaining at 3 h, 5 µM [13]: 94%
- Activity [14]: -28%
- AUC/dose [15]: 316 µM·h
- Stabilty [16]: 98%
- remaining at 2 h [17]: 80%
- Stabilty [18]: 92%
